Eleven compounds from US20250136633A1, “TELOMERE-TARGETING PHOSPHATIDYL-THIO CONJUGATES” (MAIA BIOTECHNOLOGY, INC., priority 2023, published 2025) can be followed below.

The structures appear in SMILES notation.

Data set [1] deals with HT29 Colorectal Carcinoma Cells (CRC). Nature of the data set: In vitro anticancer activity (cytotoxicity) of phosphatidyl-THIO conjugates in HT29 cells. The data set is classed as cell-based. The settings on record: for EC50: Homo sapiens, HT 29 CRC cells; for anticancer (cytotoxic) activity, in words: in vitro, comparison among the phosphatidyl conjugates and with the free pharmacophores. Here is the method: The in vitro activity of Phosphatidyl-THIO conjugates were tested in HT29 Colorectal Carcinoma Cells (CRC) (Table 2)
Anticancer activity of the one or more phosphatidyl-THIO conjugate compounds disclosed herein, was evaluated in vitro in various cancer cell lines, according to commonly used procedures for assessment of compounds cytotoxicity, as out lined in the following publications: Mender, I., Gryaznov, S., Dikmen, Z. G., Wright, W. E., & Shay, J. W. (2015). Induction of telomere dysfunction mediated by the telomerase substrate precursor 6-thio-2′-deoxyguanosine. Cancer Discovery, 5, 82-95; Mender et al., (2020). Telomere Stress Potentiates STING-Dependent Anti-tumor Immunity. Cancer Cell, 38, 400-411.

Another data set has as its system cancer cells. Nature of the data set: Induction of telomere dysfunction-induced foci (TIF) and micronuclei in cancer cells. The settings on record: treatment of cancer cells; data not shown. The format is cell-based.

In general, EC50 refers to the midpoint of the concentration-response curve. In the case of `CCCCCCCCCCCC(=O)OC[C@H](COP(=O)(O)OC[C@H]1O[C@@H](n2cnc3c(=S)[nH]c(N)nc32)C[C@@H]1O)OC(=O)CCCCCCCCCCC` [Compound C12-6SdG, 5′-(1,2-dilauroyl-sn-glycero-3-phospho)-6-thio-2′-deoxyguanosine], the EC50 in data set [1] stood at 480 nM. `Nc1nc2c(ncn2[C@H]2C[C@H](O)[C@@H](CO)O2)c(=S)[nH]1` [Compound 6-thio-dG, 6-thio-2′-deoxyguanosine, reference compound]: the EC50 in data set [1] turned out to be 200 nM. `CCCCCCCC/C=C\CCCCCCCC(=O)OC[C@H](COP(=O)(O)OC[C@H]1O[C@@H](n2cnc3c(=S)[nH]c(N)nc32)C[C@@H]1O)OC(=O)CCCCCCC/C=C\CCCCCCCC` [C18:01-6SdG, 5′-(1,2-dioleoyl-sn-glycero-3-phospho)-6-thio-2′-deoxyguanosine]: in data set [1], the EC50 amounted to 460 nM and the “anticancer (cytotoxic) activity, in words” value was “essentially recovered cytotoxic activity”. In the case of `CCCCCCCCCCCCCC(=O)OC[C@H](COP(=O)(O)OC[C@H]1O[C@@H](n2cnc3c(=S)[nH]c(N)nc32)C[C@@H]1O)OC(=O)CCCCCCCCCCCCC` [Compound C14-6SdG, 5′-(1,2-dimyristoyl-sn-glycero-3-phospho)-6-thio-2′-deoxyguanosine], the EC50 in data set [1] turned out to be 490 nM. Take `CCCCCCCC(=O)OC[C@H](COP(=O)(O)OC[C@H]1O[C@@H](n2cnc3c(=S)[nH]c(N)nc32)[C@H](O)[C@@H]1O)OC(=O)CCCCCCC` [Compound C8-6SriboG, 5′-(1,2-dioctanoyl-sn-glycero-3-phospho)-6-thio-guanosine]: in data set [1], the concentration for a half-maximal effect (EC50) came to 260 nM. As to `CCCC(=O)OC[C@H](COP(=O)(O)OC[C@H]1O[C@@H](n2cnc3c(=S)[nH]c(N)nc32)C[C@@H]1O)OC(=O)CCC` [Compound C4-6SdG, 5′-(1,2-dibutyryl-sn-glycero-3-phospho)-6-thio-2′-deoxyguanosine], in data set [1], the EC50 was 260 nM. Turning to `CCCCCCCCCCCCCCCCCC(=O)OC[C@H](COP(=O)(O)OC[C@H]1O[C@@H](n2cnc3c(=S)[nH]c(N)nc32)C[C@@H]1O)OC(=O)CCCCCCCCCCCCCCCCC` [Compound C18-6SdG, 5′-(1,2-distearoyl-sn-glycero-3-phospho)-6-thio-2′-deoxyguanosine], in data set [1], the concentration for a half-maximal effect (EC50) was determined as 12400 nM and the “anticancer (cytotoxic) activity, in words” value was “least active”.

In the case of `CCCCCC(=O)OC[C@H](COP(=O)(O)OC[C@H]1O[C@@H](n2cnc3c(=S)[nH]c(N)nc32)[C@H](O)[C@@H]1O)OC(=O)CCCCC` [Compound C6-6SriboG, 5′-(1,2-dihexanoyl-sn-glycero-3-phospho)-6-thio-guanosine], in data set [1], the EC50 was found to be 200 nM. The same measure, in the same setting: the figure for `CCCCCCCC(=O)OC[C@H](COP(=O)(O)OC[C@H]1O[C@@H](n2cnc3c(=S)[nH]c(N)nc32)C[C@@H]1O)OC(=O)CCCCCCC` [Compound C8-6SdG, 5′-(1,2-dioctanoyl-sn-glycero-3-phospho)-6-thio-2′-deoxyguanosine] is 350 nM. In the case of `CCCCCC(=O)OC[C@H](COP(=O)(O)OC[C@H]1O[C@@H](n2cnc3c(=S)[nH]c(N)nc32)C[C@@H]1O)OC(=O)CCCCC` [Compound C6-6SdG, 5′-(1,2-dihexanoyl-sn-glycero-3-phospho)-6-thio-2′-deoxyguanosine], in the data set on cancer cells, the “induction of telomere dysfunction-induced foci (TIF)-positive cells and micronuclei formation” value was “efficient induction”. In addition, the EC50 in data set [1] was found to be 80 nM.

For the compound `CCCCCCCCCCCC(=O)OC[C@H](COP(=O)(O)OC[C@H]1O[C@@H](n2cnc3c(=S)[nH]c(N)nc32)[C@H](O)[C@@H]1O)OC(=O)CCCCCCCCCCC` [Compound C12-6SriboG, 5′-(1,2-dilauroyl-sn-glycero-3-phospho)-6-thio-guanosine], in data set [1], the EC50 is 600 nM.
